Test results: publication PMC6149824, “Design and Synthesis of New Benzothiazole Compounds as Selective hMAO-B Inhibitors” (Molecules : A Journal of Synthetic Chemistry and Natural …, 2017)

Columns and labels:
hMAO-B = molecular target: T1, hMAO-B (Homo sapiens, UniProt P27338); experiment: in vitro fluorometric hMAO-B inhibition assay (Amplex Red); format: biochemical; conditions: for inhibition at 1000 µM: 10^−3 M; for inhibition at 1000 µM / inhibition at 100 µM: read-out: MAO B Inhibition %; for inhibition against hMAO-B (first screening step): 10^−3 and 10^−4 M; for inhibition at 100 µM: 10^−4 M; for IC50: concentrations of 10^−5–10^−9 M, mean ± SD, read-out: MAO B IC50
T1 sequence (P27338 1-520): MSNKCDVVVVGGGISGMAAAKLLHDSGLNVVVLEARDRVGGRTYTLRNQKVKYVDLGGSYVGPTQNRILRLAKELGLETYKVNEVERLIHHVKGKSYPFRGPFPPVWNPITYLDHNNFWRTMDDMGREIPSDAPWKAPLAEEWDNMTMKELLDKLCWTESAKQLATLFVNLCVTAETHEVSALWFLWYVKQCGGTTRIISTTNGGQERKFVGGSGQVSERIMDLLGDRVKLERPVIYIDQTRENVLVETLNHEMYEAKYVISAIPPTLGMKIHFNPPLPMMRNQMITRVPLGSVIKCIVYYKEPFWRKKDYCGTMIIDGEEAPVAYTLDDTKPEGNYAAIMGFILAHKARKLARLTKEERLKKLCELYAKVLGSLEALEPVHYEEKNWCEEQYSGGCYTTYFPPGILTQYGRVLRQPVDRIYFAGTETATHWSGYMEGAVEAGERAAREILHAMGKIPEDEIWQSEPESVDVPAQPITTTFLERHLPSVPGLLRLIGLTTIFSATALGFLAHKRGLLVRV
Experimental: The method was performed in two steps, as previously described.
An enzyme inhibition assay was performed according to our recent study. […] After the incubation period, the reaction was started by adding a working solution (100 μL/well) ([…] Amplex Red reagent, 1 U/mL horseradish peroxidase and 1 mM p-tyramine) and all pipetting processes were performed using a Biotek Precision XS robotic system (BioTek Instruments, Winooski, VT, USA).
(§1) Control experiments were carried out simultaneously by replacing the inhibitor solution with 2% DMSO (20 μL). In order to check the probable inhibitory effect of inhibitors on horseradish peroxidase, a parallel reading was achieved by replacing enzyme solutions with 3% H2O2 solution (20 mM 100 μL/well). In addition, the probable capacity of the inhibitors to modify the fluorescence generated in the reaction mixture due to non-enzymatic inhibition was determined by mixing inhibitor and working solutions.
(§2) The specific fluorescence emission (used to obtain the final results) was calculated after subtraction of the background activity, which was determined from vials containing all components except the hMAO isoforms, which were replaced by phosphate buffer (100 μL/well). Blank, control and all concentrations of inhibitors were analyzed in quadruplicate and inhibition percent was calculated by using following equation: % Inhibition=(FCt2−FCt1)−(FIt2−FIt1)/FCt2−FCt1×100 where FCt2 is the fluorescence of a control well measured at t2 time; FCt1 is the fluorescence of a control well measured at t1 time; FIt2 is the fluorescence of an inhibitor well measured at t2 time; and FIt1 is the fluorescence of an inhibitor well measured at t1 time.
(§3) The IC50 values were calculated from a dose-response curve obtained by plotting the percentage inhibition versus the log concentration with the use of GraphPad PRISM software (version 5.0, GraphPad Software Inc., La Jolla, CA, USA).

hMAO-A = molecular target: T2, hMAO-A (Homo sapiens, UniProt P21397); experiment: in vitro fluorometric hMAO-A inhibition assay (Amplex Red); format: biochemical; conditions: read-out: MAO A Inhibition %; for inhibition at 1000 µM: 10^−3 M; for inhibition at 100 µM: 10^−4 M
T2 sequence (P21397 1-527): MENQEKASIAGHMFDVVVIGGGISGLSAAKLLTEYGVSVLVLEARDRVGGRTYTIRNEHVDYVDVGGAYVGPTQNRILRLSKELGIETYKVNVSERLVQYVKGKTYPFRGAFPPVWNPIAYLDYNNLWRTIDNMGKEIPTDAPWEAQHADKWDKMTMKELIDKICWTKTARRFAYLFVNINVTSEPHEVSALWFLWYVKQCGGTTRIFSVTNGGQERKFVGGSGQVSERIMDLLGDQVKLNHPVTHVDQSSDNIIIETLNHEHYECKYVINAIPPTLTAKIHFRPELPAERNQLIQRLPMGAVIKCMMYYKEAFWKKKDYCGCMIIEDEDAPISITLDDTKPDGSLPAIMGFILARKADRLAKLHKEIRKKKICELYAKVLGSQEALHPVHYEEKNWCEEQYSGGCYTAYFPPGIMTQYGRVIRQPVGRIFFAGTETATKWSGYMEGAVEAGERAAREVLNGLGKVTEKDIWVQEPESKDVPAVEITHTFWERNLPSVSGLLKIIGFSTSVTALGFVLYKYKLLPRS
Experimental: The in vitro fluorometric enzymatic assay, allowing to sensitively detect monoamine oxidase activity, was applied to investigate hMAO-A and hMAO-B inhibitory potential of compounds 3a–3j. The method was performed in two steps, as previously described. […]
An enzyme inhibition assay was performed according to our recent study. The inhibitor (20 μL/well) and hMAO-A (100 μL/well) or hMAO-B solution (100 μL/well) was added to the fine black-bottom 96-well microtiter plate and the mixture was incubated at 37 °C for 30 min. After the incubation period, the reaction was started by adding a working solution (100 μL/well) ([…] Amplex Red reagent, 1 U/mL horseradish peroxidase and 1 mM p-tyramine) and all pipetting processes were performed using a Biotek Precision XS robotic system (BioTek Instruments, Winooski, VT, USA).
as §1, with “The production of H2O2 and, subsequently, of resorufin was quantified at 37 °C in a BioTek-Synergy H1 microplate reader based on the fluorescence generated (excitation, 535 nm, emission, 587 nm) over a 15 min period, in which the fluorescence increased linearly. Control” for “Control”
as §2, §3

SMILES | inhibition at 1000 µM (hMAO-B) [%] | inhibition against hMAO-B (first screening step) (hMAO-B) | inhibition at 100 µM (hMAO-B) [%] | IC50 (hMAO-B) [nM] | inhibition at 1000 µM (hMAO-A) [%] | inhibition at 100 µM (hMAO-A) [%] | melting point [°C]
COc1ccc2sc(SCC(=O)NN=Cc3cccs3)nc2c1 [Compound 3a, 2-((5-Methoxybenzothiazol-2-yl)thio)-N′-(thiophen-2-ylmethylene)acetohydrazide] | 60.4 | more than 50% | 52.1 | 15400 ± 398 | 25 | 19 | 163.7 to 165.3
COc1ccc2sc(SCC(=O)NN=Cc3sccc3C)nc2c1 [Compound 3b, 2-((5-Methoxybenzo[d]thiazol-2-yl)thio)-N′-((3-methylthiophen-2-yl)methylene)acetohydrazide] | 30.5 | – | 26.9 | – | 30.1 | 20.4 | 162.9 to 164.4
COc1ccc2sc(SCC(=O)NN=Cc3ccc(C)s3)nc2c1 [Compound 3c, 2-((5-Methoxybenzothiazol-2-yl)thio)-N′-((5-methylthiophen-2-yl)methylene)acetohydrazide] | 25.8 | – | 18.2 | – | 14.1 | 10.8 | 149.6 to 152.3
COc1ccc2sc(SCC(=O)NN=Cc3ccc(Br)s3)nc2c1 [Compound 3d, N′-((5-Bromothiophen-2-yl)methylene)-2-((5-methoxybenzothiazol-2-yl)thio)acetohydrazide] | 24 | – | 17.8 | – | 18.9 | 12.7 | 188.3 to 190.4
COc1ccc2sc(SCC(=O)NN=Cc3ccco3)nc2c1 [Compound 3f, N′-(Furan-2-ylmethylene)-2-((5-methoxybenzothiazol-2-yl)thio)acetohydrazide] | 75.7 | more than 50% | 68.3 | 963 ± 33 | 30.8 | 18.3 | 146.1 to 147.9
COc1ccc2sc(SCC(=O)NN=Cc3ccc(C)o3)nc2c1 [Compound 3g, 2-((5-Methoxybenzothiazol-2-yl)thio)-N′-((5-methylfuran-2-yl)methylene)acetohydrazide] | 18.2 | – | 11.2 | – | 16.7 | 11.1 | 145.3 to 146.7

Continued, values first:

inhibition at 1000 µM (hMAO-B) [%] | inhibition against hMAO-B (first screening step) (hMAO-B) | inhibition at 100 µM (hMAO-B) [%] | IC50 (hMAO-B) [nM] | inhibition at 1000 µM (hMAO-A) [%] | inhibition at 100 µM (hMAO-A) [%] | melting point [°C] | SMILES
82.6 | more than 50% | 79.1 | 75 ± 3 | 25.9 | 21.3 | 168.9 to 170.7 | COc1ccc2sc(SCC(=O)NN=Cc3ccc([N+](=O)[O-])o3)nc2c1 [Compound 3h, 2-((5-Methoxybenzothiazol-2-yl)thio)-N′-((5-nitrofuran-2-yl)methylene)acetohydrazide]
32 | – | 28.8 | – | 19.9 | 10.6 | 177.5 to 179.3 | COc1ccc2sc(SCC(=O)NN=Cc3cccnc3)nc2c1 [Compound 3i, 2-((5-Methoxybenzothiazol-2-yl)thio)-N′-(pyridin-3-ylmethylene)acetohydrazide]
34.6 | – | 30.5 | – | 22.1 | 17.3 | 159.8 to 161.4 | COc1ccc2sc(SCC(=O)NN=Cc3ccncc3)nc2c1 [Compound 3j, 2-((5-Methoxybenzothiazol-2-yl)thio)-N′-(pyridin-4-ylmethylene)acetohydrazide]
– | – | – | – | 91.4 ± 4.6 | 77.9 ± 3.71 | – | O=C(NCCN1CCOCC1)c1ccc(Cl)cc1 [Moclobemide, reference compound]
